≈ marks a conversion by molar mass, not a printed value. Where “and” joins values, the source holds several entries; their conditions need not be identical. Identical values can stand only once. Like-named read-outs stand apart in the source and are kept apart here.
Key:
[1] = biological target: T1, horseradish peroxidase (HRP) (Armoracia rusticana, UniProt P00433); assay: Plate assay: kinetic screening of enhancers of HRP-mediated DAB oxidation (ultraView Detection Kit, OD 455 nm); type: biochemical; details: for Percent increase of apparent Vmax of HRP: relative to uView Vmax without enhancement
T1 construct: purchased VMSI (Ventana Medical Systems, Inc.) 760-500: 253-4290, 253-4292 and 253-4293
Description: The additives were directly added to a well containing the necessary reagents from the ultraView™ Detection Kit (VMSI 760-500: 253-4290, 253-4292 and 253-4293) in 1× Reaction Buffer (VMSI 950-300) and 0.1% fish gelatin. Fish gelatin was used to help disperse the oxidized DAB and inhibit its precipitation from solution. The ultraView™ Detection Kit was diluted to measure the formation of oxidized DAB by UV-VIS at 455 nm. Additives were tested at set concentrations to determine enhancement in the DAB oxidation reaction. The data were graphed, and the apparent maximum velocity (Vmax) was calculated at each additive concentration level.

[2] = Solubility of additive in reaction buffer / aqueous buffers; type: physicochemical; details: for solubility: reaction buffer, aqueous buffer, read-out: Solubility of additive in reaction buffer at room temperature
[3] = Compatibility and stability of reformulated DAB Chromogen solution with additive; type: physicochemical
[4] = system: bcl2 on tonsil tissue; assay: IHC staining of bcl2 on tonsil tissue with enhanced DAB chromogen solutions, pathology scoring; details: additive in DAB chromogen solution
Description: IHC staining was performed for bcl2 on tonsil tissue using enhanced DAB chromogen solutions to further examine enhancer synergistic effects on DAB deposition. Reader 1 performed all pathology evaluations during the same period of time.
Formalin fixed paraffin embedded tonsil tissue was mounted on Superfrost slides, deparaffinized and antigen retrieved using CC1 bulk reagent (Ventana® p/n 950-124). Following retrieval, one drop (100 μL) of UV Inhibitor (a component of the ultraView™ DAB kit) was dispensed onto a slide and incubated for 8 minutes. Following the incubation of the Inhibitor, 1 drop of the mouse anti-bcl2 (clone 124; Ventana® p/n 790-4464) was dispensed onto the slide and incubated for 16 minutes. Following 2 rinses with reaction buffer, the bcl2 antibody was detected using 1 drop of the ultraView™ universal HRP conjugate (a component of the ultraView™ DAB kit) and incubated on the slide for 8 minutes. One drop of DAB (5.5 mM DAB; 0.05% Brij® 35; plus any combination of enhancers investigated in table 3) and H2O2 were each added to the slides and incubated for 8 minutes. ultraView™ DAB was used as the reference. After rinsing the slides in reaction buffer, 100 μL of copper (component of ultraView™ DAB kit) was applied to slide for 4 minutes. Slides were counterstained using Hematoxylin II (Ventana® p/n 790-2208) and Bluing Reagent (Ventana p/n760-2037). […]

[5] = biological target: T2, ultraView HRP multimer (Armoracia rusticana, UniProt P00433); assay: Michaelis-Menten kinetics of HRP-oxidized DAB with enhanced DAB chromogen mixtures; type: biochemical, horseradish
T2 construct: purchased Ventana Medical Systems (ultraView kit component)
T2 sequence (P00433 31-338 limits assumed): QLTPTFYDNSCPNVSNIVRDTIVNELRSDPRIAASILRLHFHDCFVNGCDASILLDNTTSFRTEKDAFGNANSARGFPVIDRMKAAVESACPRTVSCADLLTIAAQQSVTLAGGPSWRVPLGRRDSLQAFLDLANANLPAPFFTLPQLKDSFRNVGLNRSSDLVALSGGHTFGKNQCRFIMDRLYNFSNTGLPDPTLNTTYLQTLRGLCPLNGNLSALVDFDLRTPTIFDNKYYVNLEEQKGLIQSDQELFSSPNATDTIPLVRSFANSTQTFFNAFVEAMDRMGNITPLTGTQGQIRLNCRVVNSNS
Description: To further study the synergistic effect in the increased apparent Vmax for HRP-oxidized DAB, Michaelis-Menten kinetics were calculated for the best enhanced DAB chromogen mixtures in Table 3. […] The definition of Vmax=kcat·[E]total when the enzyme substrate concentration was at saturation levels. When the concentration of enzyme was kept constant, the apparent Vmax is proportional to kcat (the apparent turnover for HRP or the first order rate constant).

[6] = biological target: T1, horseradish peroxidase (HRP); assay: Plate assay: enhancers added sequentially to ultraView Detection Kit (synergistic/antagonistic effects); type: biochemical; details: for Effect on apparent velocity of HRP when added to a preceding assay mixture of Table 2: NMO added to mixture 4, 50 mM L-histidine or 10 mM pyrimidine added to mixture 5
Description: The same concentration of reagents from the ultraView™ Detection Kit (VMSI 760-500: 253-4290, 253-4292 and 253-4293) were used in 1× Reaction Buffer™ containing 0.1% fish gelatin for each trial. In each trial, the enhancers were added together one at a time.

[7] = system: bcl2 in tonsil tissue; assay: TSA-IHC tissue staining of bcl2 in tonsil tissue (TA-HQ deposition); details: 10 mM during tyramide deposition; 8 minute primary Ab incubation
Description: Enhanced DAB deposition was evaluated on a TSA-IHC tissue staining of bcl2 in tonsil tissue. […] Tyramide deposition was performed with and without 10 mM 2-hydroxypyrimidine. […] The percent of cells stained with DAB increased in areas with low bcl2 antigen expression. Formalin fixed paraffin embedded tonsil tissue was mounted on Superfrost slides, deparaffinized and antigen retrieved using CC1 bulk reagent (Ventana® p/n 950-124). […] Slides were counterstained using Hematoxylin II (Ventana® p/n 790-2208) and Bluing Reagent (Ventana® p/n760-2037). The slides were dehydrated using gradient alcohols, cover slipped and viewed using a bright field microscope (FIGS. 23-26).

[8] = enhancer 10 mM, no enhancer 18.50
[9] = enhancer 50 mM, no enhancer 18.50, (sat) = reaction rate saturated by start of UV-VIS analysis
[10] = enhancer 100 mM, no enhancer 18.50, (sat) = reaction rate saturated by start of UV-VIS analysis
[11] = enhancer 10 mM in 50 mM imidazole, 10 mM calcium chloride, 10 mM boric acid

| Compound | Vmax (apparent, HRP-oxidized DAB) [1, 8] [mOD/min] | Vmax (apparent, HRP-oxidized DAB) [1, 9] | Vmax (apparent, HRP-oxidized DAB) [1, 10] | Enhancement of apparent velocity of HRP-mediated DAB oxidation (in words) [1] | also measured |
| --- | --- | --- | --- | --- | --- |
| OB(O)O [Boric Acid] | 67.47 | – | – | – | Percent increase of apparent Vmax of HRP ([1]; enhancer 10 mM): 265%; Percent increase of apparent Vmax of HRP ([1]; enhancer 50 mM): 592% |
| N[C@@H](Cc1c[nH]c2ccccc12)C(=O)O [L-Tryptophan] | 30.00 | 52.00 mOD/min | 64.00 mOD/min | – | – |
| c1ccc2c(c1)Nc1ccccc1S2 [phenothiazine] | – | – | – | no enhancement | – |
| [O-][n+]1cccnc1 [Pyrimidine-N-oxide] | 104.00 | 104.00 mOD/min | 36.00 mOD/min | – | Solubility in aqueous buffers (in words) [2]: do not have solubility or volatility problems; Functionality over time of DAB reformulated with additive [3]: lost functionality and stopped staining with time; DAB staining on tissue, pathological review (in words) [4]: best DAB signal to background noise ratio for the two enhancers; Vmax [5, 11]: 374 mOD/min |
| [Ca+2].[Cl-].[Cl-] [Calcium Chloride] | – | – | – | – | Vmax (apparent, HRP-oxidized DAB) [1]: 43.50 mOD/min and 52.50 mOD/min and 57.00 mOD/min |
| c1c[nH]cn1 [Imidazole] | 28.80 | – | – | – | Percent increase of apparent Vmax of HRP ([1]; enhancer 10 mM): 56%; Precipitation of DAB from reformulated DAB Chromogen solution ([3]; higher concentrations of imidazole, 50 mM L-histidine): causing DAB to precipitate; Vmax (apparent, HRP-oxidized DAB), enhancers added sequentially ([6]; no enhancement 18.50): 34.00 mOD/min; DAB staining on tissue, pathological review (in words) [4]: significantly increased the DAB staining intensity; Vmax ([5]; 10 mM buffer salt with 10 mM pyrimidine, no enhancer 228): 330 mOD/min; Vmax ([5]; 50 mM buffer salt with 10 mM 2-hydroxypyrimidine (FIG. 19: also 10 mM boric acid, 10 mM calcium chloride)): 320 mOD/min |
| CN(C)c1ccncc1 [4-dimethylaminopyridine] | – | – | – | no enhancement | – |
| CC1(C)CCCC(C)(C)N1[O] [TEMPO, 2,2,6,6-tetramethylpiperidine-1-oxyl] | – | – | – | – | Vmax (apparent, HRP-oxidized DAB) ([1]; enhancer 0.13% (8 mM)): 18.00 mOD/min; Vmax (apparent, HRP-oxidized DAB) ([1]; enhancer 0.25% (16 mM)): 24.80 mOD/min; Vmax (apparent, HRP-oxidized DAB) ([1]; enhancer 0.50% (32 mM)): 21.20 mOD/min |
| CN(C)c1ccc2nc3ccc(=[N+](C)C)cc-3sc2c1 [methylene blue] | – | – | – | no enhancement | – |
| Nc1cc[nH]c(=O)n1 [Cytosine] | 36.00 | 66.00 mOD/min | – | increased the apparent velocity of HRP | Solubility in aqueous buffers (in words) [2]: solubility problems in aqueous buffers; solubility ([2]; additive 50 mM): 10 to 50 mM (≈ 1110 to 5560 µg/mL); solubility ([2]; additive 100 mM): 10 to 100 mM (≈ 1110 to 11100 µg/mL) |
| Cc1c[nH]c(=O)[nH]c1=O [Thymine] | 82.00 | 86.00 mOD/min | 74.00 mOD/min | increased the apparent velocity of HRP | – |
| c1ccc2[nH]cnc2c1 [Benzimidazole] | – | – | – | no enhancement | – |
| c1cocn1 [Oxazole] | 24.00 | 40.00 mOD/min | 18.00 (sat) mOD/min | – | – |
| c1cscn1 [Thiazole] | 66.40 | 27.00 (sat) mOD/min | 27.05 (sat) mOD/min | – | – |
| Oc1ccccn1 [2-Hydroxypyridine] | 47.67 | 18.19 mOD/min | 15.98 mOD/min | – | Percent increase of apparent Vmax of HRP ([1]; enhancer 10 mM): 157%; Vmax [5, 11]: 383 mOD/min |
| O=C1CC(=O)NC(=S)N1 [2-Thiobarbituric Acid] | 54.00 | 56.00 mOD/min | 76.00 mOD/min | – | – |
| c1cncnc1 [Pyrimidine] | 104.00 | 124.00 mOD/min | 36.80 (sat) mOD/min | – | Percent increase of apparent Vmax of HRP ([1]; enhancer 10 mM): 462%; Percent increase of apparent Vmax of HRP ([1]; enhancer 50 mM): 570%; Effect on apparent velocity of HRP when added to a preceding assay mixture of Table 2 [6]: increased the apparent velocity of HRP; Vmax ([5]; enhancer 50 mM in 50 mM imidazole, 10 mM calcium chloride, 10 mM boric acid): 326 mOD/min |
| Oc1ncccn1 [2-Hydroxypyrimidine] | 144.00 | 156.00 mOD/min | 148.00 mOD/min | – | Solubility in aqueous buffers (in words) [2]: do not have solubility or volatility problems; Vmax [5, 11]: 320 mOD/min; Tyramide deposition in TSA-IHC staining (in words) [7]: increased the tyramide deposition |
| C[N+]1([O-])CCOCC1 [NMO, 4-methyl-morpholine N-oxide] | – | – | – | – | Vmax (apparent, HRP-oxidized DAB) ([1]; enhancer 0.13% (10.7 mM)): 33.60 mOD/min; Vmax (apparent, HRP-oxidized DAB) ([1]; enhancer 0.25% (21.3 mM)): 43.60 mOD/min; Vmax (apparent, HRP-oxidized DAB) ([1]; enhancer 0.50% (42.7 mM)): 51.60 mOD/min; Effect on apparent velocity of HRP when added to a preceding assay mixture of Table 2 [6]: antagonistic effect |
| CC(=O)Nc1ccc(B(O)O)cc1 [4-AcHNPhB(OH)2, 4-acetylamidophenyl boronic acid] | 32.80 | – | – | – | Vmax (apparent, HRP-oxidized DAB) ([1]; enhancer 5 mM, no enhancer 18.50): 21.20 mOD/min; Percent increase of apparent Vmax of HRP ([1]; enhancer 10 mM): 77%; Vmax (apparent, HRP-oxidized DAB) ([1]; enhancer 20 mM, no enhancer 18.50): 32.00 mOD/min |
| O=c1cc[nH]c(=O)[nH]1 [Uracil] | 52.00 | 72.00 mOD/min | – | increased the apparent velocity of HRP | Solubility in aqueous buffers (in words) [2]: solubility problems in aqueous buffers; solubility ([2]; additive 50 mM): 10 to 50 mM (≈ 1120 to 5600 µg/mL); solubility ([2]; additive 100 mM): 10 to 100 mM (≈ 1120 to 11200 µg/mL) |

From patent publication US9435795B2, “Enhanced deposition of chromogens utilizing pyrimidine analogs” (Ventana Medical Systems, Inc., priority 2010, dated 2016)
